Values quoted from earlier work in patent publication US6372715B1, “Use of erythropoientin and iron preparations for producing pharmaceutical combination preparations for treating rheumatic diseases” (Roche Diagnostics GmbH, priority 1997, dated 2002).

Structure (SMILES): [Fe] [elementary iron]
- oral iron resorption (oral): about 1 mg per day
- oral iron resorption under extreme loading (oral administration of about 300 mg Fe(III)/day): less than 3 mg per day
